Tests used:
[1] = test system: wild mustard (SINAR, Sinapis arvensis); assay: Greenhouse postemergence herbicidal effect, visual injury after 20-22 d; format: in vivo
Source text: (§1) Seeds of the desired test plant species were planted in a 90:10% v/v (volume/volume) mixture of PRO-MIX® BX (Premier Tech Horticulture, Quakertown, Pa., USA) and PROFILE® GREENS GRADE™ (Profile Products LLC, Buffalo Grove, Ill., USA) planting mixture, which typically has a pH of 5.2 to 6.2 and an organic matter content of at least 50 percent, in plastic pots with a surface area of 103.2 square centimeters (cm^2). In some aspects, to ensure good germination and healthy plants, a fungicide treatment and/or other chemical or physical treatment was applied. The plants were grown for 7-36 days (d) in a greenhouse with an approximate 14-hour (h) photoperiod which was maintained at about 23° C. during the day and 22° C. during the night. Nutrients and water were added on a regular basis and supplemental lighting was provided with overhead metal halide 1000-Watt lamps as necessary. The plants were employed for testing when they reached the second or third true leaf stage.
(§2) Emulsifiable concentrates of each of each pyridine carboxylate herbicide (Compound A or Compound B) were prepared at 100 grams acid equivalent per liter (g ae/L). The emulsifiable concentrates also included a safener, cloquintocet-mexyl, at 120 grams active ingredient per liter (g ai/L). An aliquot of each emulsifiable concentrate was placed in a 25 mL glass vial and diluted with an aqueous mixture of 1.25% (v/v) ACTIROB® B esterified rapeseed oil (Bayer Crop Science, Research Triangle Park, N.C., USA) or MSO® Concentrate with LECI-TECH® methylated soybean oil (Loveland Products, Loveland, Colo., USA) to obtain concentrated stock solutions at the highest application rate for each herbicide, based upon a 12 milliliter (mL) application volume at a rate of 187 liters per hectare (L/ha). The concentrated stock solutions were further diluted with an aqueous mixture of 1.25% v/v ACTIROB® B or MSO® Concentrate with LECI-TECH® to obtain stock solutions at reduced application rates for each herbicide. Spray solutions of the herbicide combinations (Compound A or Compound B plus PDS inhibitor herbicide) were prepared by adding weighed amounts or aliquots of the PDS inhibitor herbicide to the stock solutions of Compound A or Compound B to form 12-mL spray solutions in two- or three-way combinations.
(§3) The spray solutions were applied to the plant material with an overhead Mandel track sprayer equipped with 8002E nozzles calibrated to deliver 187 L/ha over an application area of 0.503 square meters (m^2) at a spray height of 18 inches ([…] centimeters (cm)) above the average plant canopy. Control plants were sprayed in the same manner with the solvent blank. All pyridine carboxylate herbicide (component a) application rates are given as “g ae/ha” and all PDS inhibitor herbicide (component b) application rates are given as “g ai/ha.”
(§4) The treated plants and control plants were placed in a greenhouse as described above and watered by sub-irrigation to prevent wash-off of the test compounds. After 20-22 d, the condition of the test plants as compared with that of the control plants was determined visually and scored on a scale of 0 to 100 percent where 0 corresponds to no injury and 100 corresponds to complete kill.

[2] = test system: common lambsquarters (CHEAL, Chenopodium album L.); assay: as above; format: in vivo
Source text: as §1, §2, §3, §4

[3] = test system: spring rape (BRSNN, Brassica napus); assay: as above; format: in vivo
Source text: as §1, §2, §3, §4

[4] = test system: kochia (KCHSC, Kochia scoparia); assay: as above; format: in vivo
Source text: as §1, §2, §3, §4

[5] = test system: wild chamomile (MATCH, Matricaria chamomilla); assay: as above; format: in vivo
Source text: as §1, §2, §3, §4

[6] = test system: Russian thistle (SASKR, Salsola kali); assay: as above; format: in vivo
Source text: as §1, §2, §3, §4

[7] = test system: wild buckwheat (POLCO, Polygonum convolvulus); assay: as above; format: in vivo
Source text: as §1, §2, §3, §4

spring wheat (TRZAS) = assay: Greenhouse postemergence phytotoxicity on crop, visual injury after 20-22 d; format: in vivo, Triticum aestivum
Source text: as §1, §2, §3, §4

spring barley (HORVS) = assay: as above; format: in vivo, Hordeum vulgare
Source text: as §1, §2, §3, §4

[8] = test system: Canada thistle (CIRAR, Cirsium arvense); assay: Greenhouse postemergence herbicidal effect, visual injury after 20-22 d; format: in vivo
Source text: as §1, §2, §3, §4

[9] = test system: pigweed (AMARE, Amaranthus retroflexus); assay: as above; format: in vivo
Source text: as §1, §2, §3, §4

[10] = test system: winter rape (BRSNW, Brassica napus); assay: as above; format: in vivo; conditions: 60 g/ha, Table 1
Source text: as §1, §2, §3, §4

[11] = test system: common rice (ORYSA, Oryza sativa); assay: as above; format: in vivo; conditions: 12.5 g/ha, Table 4
Source text: as §1, §2, §3, §4

[12] = test system: broad-leaf dock (RUMOB, Rumex obtusifolius); assay: as above; format: in vivo; conditions: 12.5 g/ha, Table 4
Source text: as §1, §2, §3, §4

[13] = test system: wild pansy (VIOTR, Viola tricolor); assay: as above; format: in vivo; conditions: 12.5 g/ha, Table 4
Source text: as §1, §2, §3, §4

[14] = test system: barnyardgrass (ECHCG, Echinochloa crus-galli); assay: as above; format: in vivo; conditions: 12.5 g/ha, Table 4
Source text: as §1, §2, §3, §4

[15] = test system: large crabgrass (DIGSA, Digitaria sanguinalis); assay: as above; format: in vivo; conditions: 12.5 g/ha, Table 4
Source text: as §1, §2, §3, §4

[16] = test system: Italian ryegrass (LOLMU, Lolium multiflorum.); assay: as above; format: in vivo; conditions: 12.5 g/ha, Table 4
Source text: as §1, §2, §3, §4

[17] = test system: velvetleaf (ABUTH, Abutilon theophrasti); assay: as above; format: in vivo; conditions: 12.5 g/ha, Table 4
Source text: as §1, §2, §3, §4

[18] = test system: giant foxtail (SETFA, Setaria faberi); assay: as above; format: in vivo; conditions: 12.5 g/ha, Table 4
Source text: as §1, §2, §3, §4

[19] = test system: soybean (GLXMA=Glycine max); assay: as above; format: in vivo; conditions: 12.5 g/ha, Table 4
Source text: as §1, §2, §3, §4

[20] = test system: ivyleaf morningglory (IPOHE, Ipomoea hederacea); assay: as above; format: in vivo; conditions: 12.5 g/ha, Table 4
Source text: as §1, §2, §3, §4

CCC(Oc1ccc(F)c(C(F)(F)F)c1)C(=O)NCc1ccccc1 (stereo not shown) [Beflubutamid, 2-[4-fluoro-3-(trifluoromethyl)phenoxy]-N-(phenylmethyl)butanamide, reference compound]
visual injury Obs ([1]; 42.5 g/ha, Table 2): 5% | visual injury Obs ([2]; 42.5 g/ha, Table 2): 0% | visual injury Obs ([3]; 42.5 g/ha, Table 2): 25% | visual injury Obs ([4]; 42.5 g/ha, Table 2): 0% | visual injury Obs ([5]; 42.5 g/ha, Table 2): 0% | visual injury Obs ([6]; 42.5 g/ha, Table 2): 0% | visual injury Obs ([7]; 42.5 g/ha, Table 2): 0% | visual injury Obs (spring wheat (TRZAS); 42.5 g/ha, Table 2): 0% | visual injury Obs (spring barley (HORVS); 42.5 g/ha, Table 2): 18%

Cn1cc(-c2ccccc2)c(=O)c(-c2cccc(C(F)(F)F)c2)c1 [Fluridone, 1-methyl-3-phenyl-5-[3-(trifluoromethyl)-phenyl]-4(1H)-pyridinone, reference compound]
visual injury Obs ([1]; 280 g/ha, Table 3): 45% | visual injury Obs ([2]; 280 g/ha, Table 3): 13% | visual injury Obs ([3]; 280 g/ha, Table 3): 18% | visual injury Obs ([5]; 280 g/ha, Table 3): 5% | visual injury Obs ([8]; 280 g/ha, Table 3): 18% | visual injury Obs ([9]; 280 g/ha, Table 3): 23% | visual injury Obs ([6]; 280 g/ha, Table 3): 0% | visual injury Obs ([7]; 280 g/ha, Table 3): 13% | visual injury Obs (spring wheat (TRZAS); 280 g/ha, Table 3): 0% | visual injury Obs (spring barley (HORVS); 280 g/ha, Table 3): 0%

O=C(Nc1ccc(F)cc1F)c1cccnc1Oc1cccc(C(F)(F)F)c1 [Diflufenican, N-(2,4-difluorophenyl)-2-[3-(trifluoromethyl)phenoxy]-3-pyridinecarboxamide, reference compound]
visual injury [10]: 18% | visual injury ([1]; 60 g/ha, Table 1): 23% | visual injury ([2]; 60 g/ha, Table 1): 13% | visual injury ([4]; 60 g/ha, Table 1): 13% | visual injury ([5]; 60 g/ha, Table 1): 0% | visual injury ([8]; 60 g/ha, Table 1): 5% | visual injury ([9]; 60 g/ha, Table 1): 20% | visual injury ([6]; 60 g/ha, Table 1): 18% | visual injury ([7]; 60 g/ha, Table 1): 10% | visual injury (spring wheat (TRZAS); 60 g/ha, Table 1): 0% | visual injury (spring barley (HORVS); 60 g/ha, Table 1): 13%

O=C(Nc1ccc(F)cc1)c1cccc(Oc2cccc(C(F)(F)F)c2)n1 [Picolinafen, N-(4-fluorophenyl)-6-[3-(trifluoromethyl)phenoxy]-2-pyridinecarboxamide, reference compound]
visual injury Obs [11]: 5% | visual injury Obs [12]: 0% | visual injury Obs [13]: 0% | visual injury Obs [14]: 0% | visual injury Obs [15]: 50% | visual injury Obs [16]: 0% | visual injury Obs [17]: 15% | visual injury Obs ([2]; 12.5 g/ha, Table 4): 20% | visual injury Obs ([3]; 12.5 g/ha, Table 4): 28% | visual injury Obs [18]: 0% | visual injury Obs [19]: 20% | visual injury Obs ([8]; 12.5 g/ha, Table 4): 5% | visual injury Obs [20]: 5%

Source: patent US20210392889A1, “COMPOSITIONS COMPRISING PYRIDINE CARBOXYLATE HERBICIDES WITH PDS INHIBITOR HERBICIDES” (Corteva Agriscience LLC, priority 2018, published 2021)
